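GI50 marks 50% less growth. TGI is the concentration that stops growth completely.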
Legend:
Experiment in all cases: NCI-60 cell line screen, 384-well format
SW-620 colon = tested on: SW-620 colon
SK-MEL-2 melanoma = tested on: SK-MEL-2 melanoma
MDA-MB-468 breast = tested on: MDA-MB-468 breast
NCI-H522 lung = tested on: NCI-H522 lung
NCI-H23 lung = tested on: NCI-H23 lung
HOP-92 NSCLC = tested on: HOP-92 NSCLC
RPMI-8226 leukemia = tested on: RPMI-8226 leukemia
MDA-MB-231 breast = tested on: MDA-MB-231 breast
A498 renal = tested on: A498 renal
HCT-116 colon = tested on: HCT-116 colon
CAKI-1 renal = tested on: CAKI-1 renal
OVCAR-8 ovarian = tested on: OVCAR-8 ovarian
SF-539 CNS = tested on: SF-539 CNS
SF-268 CNS = tested on: SF-268 CNS
A549 NSCLC = tested on: A549 NSCLC
IGROV1 ovarian = tested on: IGROV1 ovarian
COLO 205 colon = tested on: COLO 205 colon
SNB-75 CNS = tested on: SNB-75 CNS
UACC-62 melanoma = tested on: UACC-62 melanoma
SK-OV-3 ovarian = tested on: SK-OV-3 ovarian
DU-145 prostate = tested on: DU-145 prostate
NCI-H322M lung = tested on: NCI-H322M lung
SF-295 CNS = tested on: SF-295 CNS
OVCAR-4 ovarian = tested on: OVCAR-4 ovarian
HS 578T breast = tested on: HS 578T breast
LOX IMVI melanoma = tested on: LOX IMVI melanoma
SR leukemia = tested on: SR leukemia
MDA-MB-435 melanoma = tested on: MDA-MB-435 melanoma
NCI/ADR-RES ovarian = tested on: NCI/ADR-RES ovarian
OVCAR-5 ovarian = tested on: OVCAR-5 ovarian
NCI-H460 NSCLC = tested on: NCI-H460 NSCLC
HT29 colon = tested on: HT29 colon
HL-60(TB) leukemia = tested on: HL-60(TB) leukemia
K-562 leukemia = tested on: K-562 leukemia
OVCAR-3 ovarian = tested on: OVCAR-3 ovarian
SK-MEL-28 melanoma = tested on: SK-MEL-28 melanoma
MCF7 breast = tested on: MCF7 breast
HCT-15 colon = tested on: HCT-15 colon
UO-31 renal = tested on: UO-31 renal
T-47D breast = tested on: T-47D breast
PC-3 prostate = tested on: PC-3 prostate
UACC-257 melanoma = tested on: UACC-257 melanoma
KM12 colon = tested on: KM12 colon
CCRF-CEM leukemia = tested on: CCRF-CEM leukemia
HOP-62 NSCLC = tested on: HOP-62 NSCLC
BT-549 breast = tested on: BT-549 breast
TK-10 renal = tested on: TK-10 renal

## CC(C)[C@](O)(c1ccc2cc(OC(F)F)c(OC(F)F)cc2c1)c1cn[nH]n1
SW-620 colon
  GI50: 15.2 µM
  TGI: 28.8 µM
SK-MEL-2 melanoma
  GI50: 19.4 µM
  TGI: 33.5 µM
MDA-MB-468 breast
  GI50: 10.3 µM
  TGI: 27.7 µM
NCI-H522 lung
  GI50: 13.6 µM
  TGI: 27.7 µM
NCI-H23 lung
  GI50: 14.8 µM
  TGI: 29.6 µM
HOP-92 NSCLC
  GI50: 16.7 µM
  TGI: 30.4 µM
RPMI-8226 leukemia
  GI50: 9.27 µM
  TGI: 22.5 µM
MDA-MB-231 breast
  GI50: 13.2 µM
  TGI: 26.3 µM
A498 renal
  GI50: 17.5 µM
  TGI: 31.8 µM
HCT-116 colon
  GI50: 13.6 µM
  TGI: 26.9 µM
CAKI-1 renal
  GI50: 15.7 µM
  TGI: 32.3 µM
OVCAR-8 ovarian
  GI50: 16.3 µM
  TGI: 30 µM
SF-539 CNS
  GI50: 16.8 µM
  TGI: 30.5 µM
SF-268 CNS
  GI50: 16.5 µM
  TGI: 30.6 µM
A549 NSCLC
  GI50: 17.4 µM
  TGI: 44.8 µM
IGROV1 ovarian
  GI50: 17.6 µM
  TGI: 37 µM
COLO 205 colon
  GI50: 20.3 µM
  TGI: 39.9 µM
SNB-75 CNS
  GI50: 14.9 µM
  TGI: 29.5 µM
UACC-62 melanoma
  GI50: 16.4 µM
  TGI: 30 µM
SK-OV-3 ovarian
  GI50: 15.4 µM
  TGI: 29.5 µM
DU-145 prostate
  GI50: 16.5 µM
  TGI: 32.8 µM
NCI-H322M lung
  GI50: 17.3 µM
  TGI: 33 µM
SF-295 CNS
  GI50: 15 µM
  TGI: 28.7 µM
OVCAR-4 ovarian
  GI50: 13.6 µM
  TGI: 33.1 µM
HS 578T breast
  GI50: 12.3 µM
  TGI: 24.8 µM
LOX IMVI melanoma
  GI50: 17.3 µM
  TGI: 31.2 µM
SR leukemia
  GI50: 3.91 µM
  TGI: 13.6 µM
MDA-MB-435 melanoma
  GI50: 16.9 µM
  TGI: 31.3 µM
NCI/ADR-RES ovarian
  GI50: 18.7 µM
  TGI: 33.8 µM
OVCAR-5 ovarian
  GI50: 17.3 µM
  TGI: 38.2 µM
NCI-H460 NSCLC
  GI50: 16.6 µM
  TGI: 30.5 µM
HT29 colon
  GI50: 16 µM
  TGI: 29.8 µM
HL-60(TB) leukemia
  GI50: 6.11 µM
  TGI: 16.1 µM
K-562 leukemia
  GI50: 11 µM
  TGI: 23.5 µM
OVCAR-3 ovarian
  GI50: 13 µM
  TGI: 25.8 µM
SK-MEL-28 melanoma
  GI50: 17.2 µM
  TGI: 31.5 µM
MCF7 breast
  GI50: 13 µM
  TGI: 27.5 µM
HCT-15 colon
  GI50: 14.4 µM
  TGI: 27.8 µM
UO-31 renal
  GI50: 16.6 µM
  TGI: 30.4 µM
T-47D breast
  GI50: 10.9 µM
  TGI: 38.2 µM
PC-3 prostate
  GI50: 15.9 µM
  TGI: 30.3 µM
UACC-257 melanoma
  GI50: 16.5 µM
  TGI: 30.6 µM
KM12 colon
  GI50: 15 µM
  TGI: 28.6 µM
CCRF-CEM leukemia
  GI50: 12.3 µM
  TGI: 24.8 µM
HOP-62 NSCLC
  GI50: 16.3 µM
  TGI: 30 µM
BT-549 breast
  GI50: 14.6 µM
  TGI: 27.9 µM
TK-10 renal
  GI50: 14.7 µM
  TGI: 30.2 µM

— PubChem BioAssay (NCI)
